Measurements published in paper PMC11831592, “Repurposing Linezolid in Conjunction with Histone Deacetylase Inhibitor Access in the Realm of Glioblastoma Therapies” (Journal of Medicinal Chemistry, 2025).
Where two headings read alike, the source gives them in different places.

Key:
PT#3 = test: CCK8 cell proliferation assay, PT#3; type: cell-based; conditions: Homo sapiens; PT#3, CCK8, 72 h
Protocol: (§1) Cell viability and drug cytotoxicity were determined by a CCK-8 kit (Cell Counting Kit-8, CK04-13, MD, USA) (CCK8, C0005, Target Molecule Corp., MA, USA) reagent. Cells were seeded 2 × 10^3 per well in the 96-well plate for 24 h, followed by treating at different concentrations of compounds for 72 h. Before the experiment, CCK8 was 10-fold diluted with the culture medium and then incubated with cells for 30 min. Finally, the OD was 450 nm absorbance and calculated for cell viability.

LN229 GBM cells = test: CCK8 cell proliferation assay, LN229; type: cell-based; conditions: Homo sapiens, LN-229; LN229, CCK8, 72 h
Protocol: as §1

PT#3-R = test: CCK8 cell proliferation assay, PT#3-R; type: cell-based; conditions: Homo sapiens, CCK8, 72 h
Protocol: as §1

CT-2A-R = test: CCK8 cell proliferation assay, CT-2A-R; type: cell-based; conditions: Mus musculus, CCK8, 72 h
Protocol: as §1

[1] = test system: GBM, TMZ-resistant GBM, and patient-derived TMZ-resistant GBM cells; test: CCK8 assay, GBM cell panel (range given); type: cell-based; conditions: read-out: IC50 values, range over GBM cells
Protocol: as §1

HDAC2 = target: T1, HDAC2 (Homo sapiens, UniProt Q92769); test: HDAC enzyme inhibition assay, HDAC2; type: biochemical; conditions: 10-dose, 3-fold serial dilution starting at 10 μM
T1 construct: purchased Reaction Biology Corporation, Malvern, PA (contract assay service)
T1 sequence (Q92769 whole entry): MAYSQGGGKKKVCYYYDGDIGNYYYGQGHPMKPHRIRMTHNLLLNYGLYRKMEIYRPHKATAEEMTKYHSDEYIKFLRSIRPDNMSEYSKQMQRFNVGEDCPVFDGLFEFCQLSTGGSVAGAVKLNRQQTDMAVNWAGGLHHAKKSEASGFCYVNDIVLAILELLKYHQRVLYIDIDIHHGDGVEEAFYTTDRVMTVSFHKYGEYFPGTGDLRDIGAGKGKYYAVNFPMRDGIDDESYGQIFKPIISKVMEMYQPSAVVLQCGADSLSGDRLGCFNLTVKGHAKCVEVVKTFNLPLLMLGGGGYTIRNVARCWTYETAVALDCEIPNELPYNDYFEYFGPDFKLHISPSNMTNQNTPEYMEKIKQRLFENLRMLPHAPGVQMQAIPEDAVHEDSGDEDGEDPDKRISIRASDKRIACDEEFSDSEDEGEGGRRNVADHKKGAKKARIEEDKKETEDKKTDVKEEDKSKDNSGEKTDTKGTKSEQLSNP
Protocol: Enzyme inhibition assays were performed by the Reaction Biology Corporation, Malvern, PA (http://www.reactionbiology.com).

PT#3R cells = test: Cell cycle analysis by flow cytometry; type: cell-based, human; conditions: 72 h
Protocol: To measure the cell cycle, cells were seeded 5 × 10^4 per well in a 12-well plate for 24 h, followed by treatment of the different concentrations of compounds for 72 h. Next, the cells were fixed with 70% ethanol and stored at −20 °C for at least 24 h. After washing, the cells were stained with 30 μg/mL propidium iodide (PI, Cat# P4170, Sigma-Aldrich) and contented 10 ng/mL RNaseA (Cat# R6148, Sigma-Aldrich) for 30 min, followed by detection using flow cytometry Guava easyCyte Flow Cytometers and then analyzed by the Guava easyCyte System 3.3 (Cytec Industries Incorporated, NJ, USA).

[2] = test system: DNA HR repair in U87MG cells; test: Homologous recombination repair assay; type: cell-based, human; conditions: increasing drug concentrations
Protocol: For the DNA, HR repair assay continued to use our previous study.[30] U87MG cells were cotransfected at a 2:1 ratio using the […] reporter and DsRed-Monomer plasmids. Cells were harvested 2 days after transfection and subjected to flow cytometry analysis by a Guava EasyCyte System. Only DsRed-positive cells were analyzed for HR and NHEJ efficiencies to circumvent possible differences in transfection efficiencies. Data were analyzed to reveal the percentage of GFP-positive cells relative to those of DsRed-positive cells. Data were set to 1% of the background level of GFP-positive cells in every internal control.

[3] = Brain distribution study, UPLC of plasma and brain tissue extract; type: in vivo; conditions: mouse, ip, C57BL/6 mice, 360 mg/kg intraperitoneal
Protocol: The liquid chromatography was performed on an Acquity H class UPLC system (Waters Corp., Massachusetts, U.S.) equipped with an ACQUITY Premier PDA eλ detector (Waters Corp., Massachusetts, U.S.) with an autosampler temperature of 15 °C. Separation was performed at 25 °C on a Waters Acquity HSS T3 C18 column (2.1 mm × 100 mm, 1.8 μm particle size) with a gradient elution using A: water (containing 2 mM ammonium acetate and 0.1% formic acid) and B: acetonitrile as the mobile phase. The gradient program is as follows: 96% A (initial), 96% A (1 min), 65% A (7 min), 65% A (7.5 min), 96% A (8 min), and 96% A (12 min). The flow rate was set at 0.5 mL/min, and the injection volume was 3 μL. The UV wavelength was adjusted to 254 nm for compound 1 detection.
Following anesthesia of mice with isoflurane, blood samples were collected via a cardiac puncture. The blood was centrifuged at 2000g for 20 min at 4 °C to obtain plasma. Plasma samples were then mixed with an equal volume of 1 M zinc sulfate heptahydrate solution (cat. no. 221376, Sigma-Aldrich) and allowed to stand for 30 min. Subsequently, the mixture was centrifuged at 12,000g for 30 min at 4 °C, and the supernatant was collected for analysis. Brain tissues were homogenized using a Tenbroeck tissue grinder at a ratio of 5 μL of DMSO per mg of tissue. The homogenates were then centrifuged at 12,000g for 30 min at 4 °C, and the supernatant was collected for analysis.
Compound 1 was prepared in DMSO at a concentration of 180 mg/mL, and […] at 30 mg/mL. C57BL/6 mice were intraperitoneally injected with compound 1 at 360 mg/kg, TMZ at […], or DMSO at 2 μL/g as the control group. Mice were sacrificed by intraperitoneal injection after 30 min, and plasma as well as brain tissue extracts were collected following the aforementioned procedures.

PT#3-R GBM cells = test: Orthotopic PT#3-R transplant model, survival and HE staining; type: in vivo, mouse
Protocol: For orthotopic inoculation, CT-2A cells (1 × 10^5) or CT-2A-R (2 × 10^5) were suspended in 4 μL of DMEM and implanted into the brain of B6 mice. PT#3-R cells (5 × 10^5) were suspended in 4 μL of DMEM and implanted into the brain of SCID mice. After cell implantation, mice were monitored daily for survival, and their body weight was measured every 3 days starting from the seventh day. […] […] […] Upon the natural death of the mice, brains were extracted and entrusted to BioTools for sectioning and HE staining.

O=C(/C=C/c1ccc(CNC[C@H]2CN(c3ccc(N4CCOCC4)c(F)c3)C(=O)O2)cc1)NO [compound 1, (S,E)-3-(4-((((3-(3-Fluoro-4-morpholinophenyl)-2-oxooxazolidin-5-yl)methyl)ami-no)methyl)phenyl)-N-hydroxyacrylamide]
IC50 (PT#3): 10.3 ± 0.52 µM
IC50 (LN229 GBM cells): 15.7 ± 0.93 µM
IC50 (PT#3-R): 11.1 ± 0.57 µM
IC50 (CT-2A-R): 8.27 ± 1.39 µM
IC50 [1]: 10.3 to 30.6 µM
IC50 (HDAC2): 2.81 µM
cell cycle distribution (PT#3R cells): G2/M phase arrest and increases in the sub-G1 cell population
DNA HR repair capability [2]: substantial decrease in DNA HR repair capability
concentration at 30 min ([3]; brain, read-out: Brain conc.): 831 ng/mL
Kp at 0.5 h ([3]; brain/plasma, 30 min, read-out: brain/plasma (B/P) ratio): 1.27
concentration at 30 min ([3]; plasma, read-out: Plasma conc.): 656 ng/mL
survival (Kaplan-Meier) (PT#3-R GBM cells; PT#3-R in SCID mice, 10 or 20 mg/kg with 10 mg/kg TMZ, intraperitoneal every 3 days from day 7): extend the survival rate
TMZ-resistant GBM cell growth in the brain (HE staining) (PT#3-R GBM cells; PT#3-R, post-mortem brain tissue sections): effective inhibition of TMZ-resistant GBM cell growth in the brain
